Source: patent US20250034212A1, “PEPTIDE” (PEPTIDREAM INC., priority 2021, published 2025)
Starred links: 1 amine or outer side, 2 acyl side, 3 side chain; linkers in the order of their positions; H or OH if unused. Positions of bridges follow the written chain, without caps; N, C: chain ends. Non-standard residues stand in square brackets, D forms with d. Residues, ends and D or L forms follow the SMILES beside them. Groups on a side chain read outwards from the residue. *: point of attachment. CH3O(CH2CH2O)7C2H4CO = COCCOCCOCCOCCOCCOCCOCCOCCC(=O)*; Meglumine = CN(C[C@H](O)[C@@H](O)[C@H](O)[C@H](O)CO)*; Piperazinyl(4-CH2COOH) = O=C(O)CN1CCN(*)CC1; 1Nal = N[C@@H](Cc1cccc2ccccc12)C(=O)O; Gly(NCH2CH2Ph) = O=C(O)CNCCc1ccccc1; 4Pal = N[C@@H](Cc1ccncc1)C(=O)O; CO = O=C([*:1])[*:2]

Assays:
recombinant human TGF-β1 [1] = target: T1, recombinant human TGF-β1 (Homo sapiens, UniProt P01137); test: SBE reporter assay in SBE reporter-HEK293 cells, TGF-β1 stimulation; format: cell-based; settings: TGF-β1 0.13 nM, 18 hours; for inhibition at 62 pM: peptide 0.062 nM; for inhibition at 0.000185 µM: peptide 0.185 nM; for inhibition at 0.00056 µM: peptide 0.56 nM; for inhibition at 0.0017 µM: peptide 1.7 nM; for inhibition at 0.005 µM: peptide 5.0 nM; for inhibition at 0.015 µM: peptide 15.0 nM
T1 construct: purchased R&D systems
Text: The inhibitory activity of the peptide can be calculated without limitation while the maximum signal induced by TGF-β is set to 0% inhibition and no stimulation is set to 100% inhibition. When the peptide is used at an appropriate concentration, for example, at the optimal concentration, the inhibitory activity is not limited but the inhibition is 5% or more, 10% or more, 20% or more, 30% or more, 40% or more, 50% or more, 60% or more, 70% or more, 80% or more, or 90% or more.
In this Example, the TGF-β1 inhibitory activity of the peptide of the present invention consisting of the amino acid sequence set forth in SEQ ID NOs: 2-33 synthesized in Examples 1 to 5 and 7 was evaluated by an SBE reporter assay using the SBE reporter-HEK293 cell system (BP Bioscience) as follows.
SBE reporter-HEK293 cells were cultured in E-MEM (Wako) containing 10% FBS (Sigma). The cells were detached using Accutase (Innovative Cell Technologies), suspended in E-MEM containing 0.5% FBS, seeded onto a 96-well plate(s) at a concentration of 45,000 cells per well, and cultured overnight. The next day, the peptide was added and allowed to stand for 20 min, and recombinant human TGF-β1 (R&D systems) or recombinant human TGF-β2 (R&D systems) was then added at 0.13 nM and cultured for 18 hours.
Thereafter, luciferase assay ONE-Glo reagent was added to each well and the plate was shaken for 5 min. A SpectraMax Paradigm multimode microplate reader (Molecular Devices) was then used for signal detection. The obtained signals were analyzed by GraphPad Prism. The inhibitory activity of the peptide was calculated while the maximum signal induced by TGF-β was set to 0% inhibition and no stimulation was set to 100% inhibition.

recombinant human TGF-β1 [2] = target: T1, recombinant human TGF-β1; test: SPR intermolecular interaction test, TGF-β1 immobilized on CM3 sensor chip (Biacore T200); format: binding; settings: Single Cycle Kinetics, human TGF-β1
Method: In this Example, (1) the activity of binding to TGF-β for various peptides consisting of the amino acid sequences set forth in SEQ ID NOs: 2-33 synthesized in Examples 1 to 5 and 7 was evaluated. (2) The activity and selectivity of binding of the peptide consisting of the amino acid sequence set forth in SEQ ID NO: 13 synthesized in Example 2 against two isoforms of TGF-β (TGF-β1 and β2) were checked. For this purpose, the intermolecular interaction of each peptide against TGF-β was tested by surface plasmon resonance (SPR) in the method described below. Specific test methods are described below.
A CM3 sensor chip (Global Life Science Technologies Japan Co., Ltd.) was inserted into a BiacoreT200 (Global Life Science Technologies Japan Co., Ltd.). Three priming runs were performed using running buffer: HBS-EP+ (Global Life Science Technologies Japan Co., Ltd.). The system was then equilibrated at a flow rate of 30 μL/min.
Subsequently, 50 μL of 60 mM EDC solution (Global Life Science Technologies Japan Co., Ltd.) and 50 μL of 650 mM NHS solution (Global Life Science Technologies Japan Co., Ltd.) were mixed. Next, the reaction was carried out at a flow rate of 10 μL/min for 420 seconds. Then, 150 μL of 0.2 μM TGF-β solution diluted in 10 mM acetic acid solution (pH 5.0) was prepared and reacted at a flow rate of 10 μL/min for 420 seconds to immobilize TGF-β on the CM3 sensor chip. TGF-β was human-derived TGF-β1 or β2 (recombinant human TGF-β1, 2) and was obtained from R&D systems. After immobilization, capping was performed by reacting with 1.0 M ethanolamine aqueous solution (Global Life Science Technologies Japan Co., Ltd.) at a flow rate of […] for 420 seconds.
A liquid prepared by dissolving each peptide at 10 mM in DMSO solution was diluted with running buffer to prepare a peptide-dissolved solution at a final concentration of 10 μM. Subsequently, 50 nM, 25 nM, 12.5 nM, 5 nM, and 2.5 nM peptide solutions were prepared. Using the above samples, the kinetics of each peptide against TGF-β was obtained by SPR measurement.
The kinetics evaluation model was Single Cycle Kinetics, and curve fitting was performed using Biacore T200 Evaluation Software Version 3.0 (Global Life Science Technologies Japan Co., Ltd.). The binding of various peptides to TGF-β was evaluated by performing least-squares curve fitting on the obtained sensorgram to calculate the KD value.

T1 sequence (P01137 279-390 limits assumed): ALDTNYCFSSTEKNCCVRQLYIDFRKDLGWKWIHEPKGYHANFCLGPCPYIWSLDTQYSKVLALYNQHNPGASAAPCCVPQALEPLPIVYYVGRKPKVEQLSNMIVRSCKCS

| SMILES | inhibition at 62 pM (recombinant human TGF-β1 [1]) [%] | inhibition at 0.000185 µM (recombinant human TGF-β1 [1]) [%] | inhibition at 0.00056 µM (recombinant human TGF-β1 [1]) [%] | inhibition at 0.0017 µM (recombinant human TGF-β1 [1]) [%] | inhibition at 0.005 µM (recombinant human TGF-β1 [1]) [%] | inhibition at 0.015 µM (recombinant human TGF-β1 [1]) [%] | Kd (recombinant human TGF-β1 [2]) [pM] |
| --- | --- | --- | --- | --- | --- | --- | --- |
| CC(C)[C@@H]1NC(=O)CN(CCc2ccccc2)C(=O)[C@H](CCC(=O)O)NC(=O)[C@H](CC(=O)O)NC(=O)[C@H](Cc2ccncc2)NC(=O)[C@H](C(C)C)NC(=O)[C@H](CC(N)=O)NC(=O)[C@H](CCCCNC(=O)N(C)C[C@H](O)[C@@H](O)[C@H](O)[C@H](O)CO)NC(=O)[C@H](C(C)C)NC(=O)[C@H](Cc2cccc3ccccc23)NC(=O)[C@H](Cc2ccccc2)NC(=O)CSC[C@@H](C(=O)NCC(N)=O)NC(=O)[C@H](CCCCNC(=O)N2CCN(CC(=O)O)CC2)NC(=O)[C@H](Cc2c[nH]cn2)NC(=O)[C@H](Cc2ccc(O)cc2)NC(=O)[C@H](Cc2cccc3ccccc23)NC1=O [TGFb1_024] ({CH2CO}-F[1Nal]VK([CO-Meglumine])NV[4Pal]DE[Gly(NCH2CH2Ph)]V[1Nal]YHK([CO-Piperazinyl(4-CH2COOH)])CG-NH2; thioether N-16) | 5.79 | 16.6 | 45 | 80.2 | 95.5 | 98.9 | 1040 |
| CC(C)[C@@H]1NC(=O)CN(CCc2ccccc2)C(=O)[C@H](CCCCNC(=O)N2CCN(CC(=O)O)CC2)NC(=O)[C@H](CC(=O)O)NC(=O)[C@H](Cc2ccncc2)NC(=O)[C@H](C(C)C)NC(=O)[C@H](CC(N)=O)NC(=O)[C@H](CCCCNC(=O)N(C)C[C@H](O)[C@@H](O)[C@H](O)[C@H](O)CO)NC(=O)[C@H](C(C)C)NC(=O)[C@H](Cc2cccc3ccccc23)NC(=O)[C@H](Cc2ccccc2)NC(=O)CSC[C@@H](C(=O)NCC(N)=O)NC(=O)[C@H](CCCCNC(=O)N2CCN(CC(=O)O)CC2)NC(=O)[C@H](Cc2c[nH]cn2)NC(=O)[C@H](Cc2ccc(O)cc2)NC(=O)[C@H](Cc2cccc3ccccc23)NC1=O [TGFb1_025] ({CH2CO}-F[1Nal]VK([CO-Meglumine])NV[4Pal]DK([CO-Piperazinyl(4-CH2COOH)])[Gly(NCH2CH2Ph)]V[1Nal]YHK([CO-Piperazinyl(4-CH2COOH)])CG-NH2; thioether N-16) | 4.81 | 18.4 | 43.3 | 77.5 | 94.7 | 99.4 | 830 |
| COCCOCCOCCOCCOCCOCCOCCOCCC(=O)NCCCC[C@H](NC(=O)CNC(=O)[C@@H]1CSCC(=O)N[C@@H](Cc2ccccc2)C(=O)N[C@@H](Cc2cccc3ccccc23)C(=O)N[C@@H](C(C)C)C(=O)N[C@@H](C(C)C)C(=O)N[C@@H](CC(N)=O)C(=O)N[C@@H](C(C)C)C(=O)N[C@@H](Cc2ccncc2)C(=O)N[C@@H](CC(=O)O)C(=O)N[C@@H](CC(=O)O)C(=O)N(CCc2ccccc2)CC(=O)N[C@@H](C(C)C)C(=O)N[C@@H](Cc2cccc3ccccc23)C(=O)N[C@@H](Cc2ccc(O)cc2)C(=O)N[C@@H](Cc2c[nH]cn2)C(=O)N[C@@H](CCCCNC(=O)N2CCN(CC(=O)O)CC2)C(=O)N1)C(N)=O [TGFb1_031] ({CH2CO}-F[1Nal]VVNV[4Pal]DD[Gly(NCH2CH2Ph)]V[1Nal]YHK([CO-Piperazinyl(4-CH2COOH)])CGK(CH3O(CH2CH2O)7C2H4CO)-NH2; thioether N-16) | 9.29 | 20.1 | 51.9 | 84.9 | 96.7 | 99.1 | 910 |

The remaining lines, values ahead:

| inhibition at 62 pM (recombinant human TGF-β1 [1]) [%] | inhibition at 0.000185 µM (recombinant human TGF-β1 [1]) [%] | inhibition at 0.00056 µM (recombinant human TGF-β1 [1]) [%] | inhibition at 0.0017 µM (recombinant human TGF-β1 [1]) [%] | inhibition at 0.005 µM (recombinant human TGF-β1 [1]) [%] | inhibition at 0.015 µM (recombinant human TGF-β1 [1]) [%] | Kd (recombinant human TGF-β1 [2]) [pM] | SMILES |
| --- | --- | --- | --- | --- | --- | --- | --- |
| 6.49 | 20.8 | 53.8 | 85.2 | 97.1 | 99.5 | 910 | CC(C)[C@@H]1NC(=O)CN(CCc2ccccc2)C(=O)[C@H](CCCCNC(=O)N2CCN(CC(=O)O)CC2)NC(=O)[C@H](CC(=O)O)NC(=O)[C@H](Cc2ccncc2)NC(=O)[C@H](C(C)C)NC(=O)[C@H](CC(N)=O)NC(=O)[C@H](C(C)C)NC(=O)[C@H](C(C)C)NC(=O)[C@H](Cc2cccc3ccccc23)NC(=O)[C@H](Cc2ccccc2)NC(=O)CSC[C@@H](C(=O)NCC(N)=O)NC(=O)[C@H](CCCCNC(=O)N2CCN(CC(=O)O)CC2)NC(=O)[C@H](Cc2c[nH]cn2)NC(=O)[C@H](Cc2ccc(O)cc2)NC(=O)[C@H](Cc2cccc3ccccc23)NC1=O [TGFb1_022] ({CH2CO}-F[1Nal]VVNV[4Pal]DK([CO-Piperazinyl(4-CH2COOH)])[Gly(NCH2CH2Ph)]V[1Nal]YHK([CO-Piperazinyl(4-CH2COOH)])CG-NH2; thioether N-16) |
| 5.21 | 11.3 | 30.2 | 61.6 | 87.8 | 96.4 | 1410 | CC(C)[C@@H]1NC(=O)CN(CCc2ccccc2)C(=O)[C@H](CC(=O)O)NC(=O)[C@H](CC(=O)O)NC(=O)[C@H](Cc2ccncc2)NC(=O)[C@H](C(C)C)NC(=O)[C@H](CC(N)=O)NC(=O)[C@H](CCCCNC(=O)N2CCN(CC(=O)O)CC2)NC(=O)[C@H](C(C)C)NC(=O)[C@H](Cc2cccc3ccccc23)NC(=O)[C@H](Cc2ccccc2)NC(=O)CSC[C@@H](C(=O)NCC(N)=O)NC(=O)[C@H](CCCCNC(=O)N2CCN(CC(=O)O)CC2)NC(=O)[C@H](Cc2c[nH]cn2)NC(=O)[C@H](Cc2ccc(O)cc2)NC(=O)[C@H](Cc2cccc3ccccc23)NC1=O [TGFb1_019] ({CH2CO}-F[1Nal]VK([CO-Piperazinyl(4-CH2COOH)])NV[4Pal]DD[Gly(NCH2CH2Ph)]V[1Nal]YHK([CO-Piperazinyl(4-CH2COOH)])CG-NH2; thioether N-16) |
|  |  |  |  |  |  | 820 | CC(C)[C@@H]1NC(=O)CN(CCc2ccccc2)C(=O)[C@H](CC(=O)O)NC(=O)[C@H](CC(=O)O)NC(=O)[C@H](Cc2ccncc2)NC(=O)[C@H](C(C)C)NC(=O)[C@H](CC(N)=O)NC(=O)[C@H](C(C)C)NC(=O)[C@H](C(C)C)NC(=O)[C@H](Cc2cccc3ccccc23)NC(=O)[C@H](Cc2ccccc2)NC(=O)CSC[C@@H](C(N)=O)NC(=O)[C@H](CCCCNC(=O)N2CCN(CC(=O)O)CC2)NC(=O)[C@H](Cc2c[nH]cn2)NC(=O)[C@H](Cc2ccc(O)cc2)NC(=O)[C@H](Cc2cccc3ccccc23)NC1=O [TGFb1_013] ({CH2CO}-F[1Nal]VVNV[4Pal]DD[Gly(NCH2CH2Ph)]V[1Nal]YHK([CO-Piperazinyl(4-CH2COOH)])C-NH2; thioether N-16) |
